Results on 15 compounds are retold here after ChEMBL document CHEMBL1201862, “PubChem BioAssay data set” (2004).

Structures can show the parent of a compound that is named as a salt.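 These data come from cells grown in 96-well plates and exposed to compound for 48 hours at five concentrations. GI50 = concentration required for 50% inhibition of growth.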 Activity calls are given as the source filed them. No stated cut-off is given here; in the data, active = GI50 up to about 1.1 µM and inactive = higher.

Test systems include SN12C; HT-29; UACC-257; HCT-116; OVCAR-3; Malme-3M; A549; LOX IMVI; SW-620; SK-OV-3; HL-60; HCT-15; UACC-62; EKVX; ACHN; SR.
Common to all, as to experiment: DTP human tumour cell line panel, 48 h

One may read the GI50 as the concentration giving 50% growth inhibition. On to `CC1CC2(CCC1OCc1ccccc1)OCCO2` (stereo not given), for which the GI50 in the assay on SN12C, in the assay with HT-29, with UACC-257, in the assay with HCT-116, in the assay on OVCAR-3 and in the assay with Malme-3M was > 100 µM (inactive) throughout. Further, the GI50 is > 100 µM (inactive) in the assay with A549; > 100 µM (inactive) in the assay with LOX IMVI; > 100 µM (inactive) in the assay on SW-620; > 100 µM (inactive) with SK-OV-3; > 100 µM (inactive) in the assay with HL-60; over 100 µM with HCT-15. The GI50 in the assay on UACC-62 and with EKVX was > 100 µM (inactive) in each case.

As to `C[n+]1cc(C(O)c2ccc3c(c2)OCO3)c2ccccc2c1` (stereo not given), the GI50 in the assay with ACHN is 29.1 µM (inactive); in the assay with SN12C, 40.6 µM (inactive); in the assay with HT-29 it was 51.2 µM (inactive); with UACC-257 it was 18.6 µM (inactive); in the assay on HCT-116, 28.4 µM (inactive); with OVCAR-3 it was 28.8 µM (inactive). The GI50 with Malme-3M is 25.4 µM (inactive); in the assay with A549, 33.3 µM (inactive); in the assay on LOX IMVI it was 46 µM (inactive); in the assay on SW-620, 44.2 µM (inactive); in the assay on SK-OV-3, 45.5 µM (inactive); with HCT-15, 33.5 µM. Besides, the GI50 in the assay with UACC-62 was 22.9 µM (inactive); with EKVX it was 27 µM (inactive).

Turning to `COc1cc2c(cc1OC)C(C(CO)CO)N(CC(O)CCl)CC2` (stereo not given), the GI50 with ACHN, with HT-29, with UACC-257, in the assay on OVCAR-3, with Malme-3M and with A549 was > 100 µM (inactive) each time. The GI50 is > 100 µM (inactive) in the assay with LOX IMVI; > 100 µM (inactive) in the assay with SW-620; > 100 µM (inactive) in the assay with SK-OV-3; > 100 µM (inactive) in the assay with HL-60; over 100 µM with HCT-15; > 100 µM (inactive) in the assay with UACC-62. Besides, the GI50 in the assay with EKVX was > 100 µM (inactive).

For `CC(=O)O[C@H]1CCC2[C@@H]3CCC4Nc5[nH]ncc5C[C@]4(C)C3CC[C@@]21C` (stereo not given in full), the GI50 is > 100 µM (inactive) in the assay with ACHN; > 100 µM (inactive) in the assay on SN12C; 45.3 µM (inactive) in the assay with HT-29; 22.4 µM (inactive) in the assay with UACC-257; 64.9 µM (inactive) in the assay on HCT-116; 32.4 µM (inactive) in the assay on OVCAR-3. Moreover, the GI50 was 32.7 µM (inactive) in the assay on Malme-3M; > 100 µM (inactive) with A549; 0.405 µM (active) with LOX IMVI; 36.8 µM (inactive) with SW-620; > 100 µM (inactive) with SK-OV-3; 18.2 µM (inactive) with HL-60. Also, the GI50 is 44.6 µM in the assay with HCT-15, 18.9 µM (inactive) in the assay on UACC-62 and 35.1 µM (inactive) in the assay with EKVX.

For the compound `CSc1nc(Cl)c(Br)c(Sc2nc(N)nc3nc[nH]c23)n1`, the GI50 was 15.3 µM (inactive) in the assay on ACHN; 9.86 µM (inactive) in the assay with HT-29; 13.9 µM (inactive) in the assay on UACC-257; 3.48 µM (inactive) in the assay on SR; 2.84 µM (inactive) in the assay on HCT-116; 15.2 µM (inactive) in the assay on OVCAR-3. For the same compound, the GI50 with Malme-3M is 13.4 µM (inactive); with A549, 19.5 µM (inactive); in the assay on SW-620, 7.43 µM (inactive); with HL-60, 3.63 µM (inactive); in the assay with HCT-15, 5.66 µM; in the assay on UACC-62, 3.52 µM (inactive).

As to `C=CCN1COc2c(cc3c4c(cccc24)C(=O)O3)C1`, the GI50 in the assay with ACHN was > 10 µM (inactive); with SN12C it was 21 µM (inactive); in the assay with HT-29, 23.8 µM (inactive); with UACC-257, 26.4 µM (inactive); in the assay with HCT-116, 20.1 µM (inactive); in the assay on OVCAR-3, 25.2 µM (inactive). In addition, the GI50 in the assay on Malme-3M was > 10 µM (inactive); in the assay with A549, > 100 µM (inactive); in the assay with LOX IMVI, > 10 µM (inactive); in the assay on SW-620 it was 25.4 µM (inactive); in the assay with SK-OV-3, > 100 µM (inactive); with HL-60, 21.4 µM (inactive). The GI50 is 29.2 µM with HCT-15, 19.2 µM (inactive) in the assay with UACC-62 and 35.7 µM (inactive) with EKVX.

With `CNC(=O)NCCCCC(NC(C)=O)C(=O)NCc1ccccc1` (stereo not given), the GI50 in the assay with ACHN, in the assay with SN12C, in the assay with HT-29, in the assay with UACC-257, with HCT-116 and in the assay on OVCAR-3 was > 100 µM (inactive) in each case. The GI50 in the assay with Malme-3M is > 100 µM (inactive); in the assay on A549, > 100 µM (inactive); in the assay on LOX IMVI it was > 100 µM (inactive); in the assay with SW-620 it was > 100 µM (inactive); with SK-OV-3 it was > 100 µM (inactive); with HCT-15, over 100 µM. In addition, the GI50 in the assay on UACC-62 and in the assay with EKVX was > 100 µM (inactive) each time.

Take `CCOC(=O)N1CCN(P(=O)(Nc2ccc3[nH]c(NC(=O)OC)nc3c2)Oc2ccccc2)CC1` (stereo not given): the GI50 in the assay on ACHN was > 100 µM (inactive); in the assay with SN12C it was > 100 µM (inactive); in the assay with HT-29 it was > 100 µM (inactive); in the assay with UACC-257 it was > 100 µM (inactive); with HCT-116 it was > 100 µM (inactive); with OVCAR-3, 50.7 µM (inactive). The GI50 with Malme-3M is 31.6 µM (inactive); in the assay on A549 it was > 100 µM (inactive); in the assay on LOX IMVI, > 100 µM (inactive); in the assay on SW-620 it was > 100 µM (inactive); in the assay with SK-OV-3, > 100 µM (inactive); with HL-60, > 100 µM (inactive). Also, the GI50 in the assay with HCT-15 was over 100 µM; with UACC-62, 51.1 µM (inactive).

On to `CC/C(C)=C1\CCC(CN(C)C)C1=O` (stereo not given), for which the GI50 is 18.9 µM (inactive) in the assay with ACHN; 20.1 µM (inactive) in the assay with SN12C; 23.1 µM (inactive) in the assay with HT-29; 17.3 µM (inactive) in the assay with UACC-257; 19.3 µM (inactive) in the assay on SR; 17.8 µM (inactive) in the assay with HCT-116. Further, the GI50 was 19.1 µM (inactive) in the assay on OVCAR-3; 22 µM (inactive) in the assay with Malme-3M; 22.9 µM (inactive) with A549; 20.6 µM (inactive) in the assay on LOX IMVI; 22.9 µM (inactive) in the assay on SW-620; 18.4 µM (inactive) with HL-60. For the same compound, the values for the GI50 in the assay with HCT-15, in the assay with UACC-62 and with EKVX were 15.8 µM, 33.3 µM (inactive) and 21.9 µM (inactive), respectively.

With `CCCCCCCCCCCCCCNCC(OCC)OCC`, the GI50 is 12.6 µM (inactive) with ACHN; 13.7 µM (inactive) in the assay on SN12C; 2.86 µM (inactive) in the assay on HT-29; 16.7 µM (inactive) with UACC-257; 11.1 µM (inactive) in the assay on HCT-116; 18.3 µM (inactive) in the assay on OVCAR-3. Also, the GI50 with Malme-3M was 17.1 µM (inactive); in the assay on A549, 19.4 µM (inactive); with LOX IMVI, 16.3 µM (inactive); in the assay on SW-620, 15.3 µM (inactive); with SK-OV-3, 18.6 µM (inactive); with HL-60, 2.85 µM (inactive). In addition, the results for the GI50 in the assay with HCT-15, with UACC-62 and with EKVX were 8.47 µM, 18.1 µM (inactive) and 17.7 µM (inactive), respectively.

On to `CCOC(=O)C1=C(C)CC2C(=O)OC(=O)C2C1(C)C` (stereo not given), for which the GI50 with ACHN, in the assay with SN12C, in the assay with HT-29, in the assay on UACC-257, in the assay on SR and with OVCAR-3 was > 100 µM (inactive) in each case. Also, the GI50 in the assay on Malme-3M was > 100 µM (inactive); with A549, > 100 µM (inactive); in the assay with SW-620, > 100 µM (inactive); with SK-OV-3 it was > 100 µM (inactive); in the assay with HL-60 it was > 100 µM (inactive); in the assay with HCT-15, over 100 µM. Also, in the assay on EKVX, the GI50 was > 100 µM (inactive).

For the compound `CN(C)C(=S)/N=c1\ssc(=S)n1C1CCCCC1`, the GI50 with ACHN was 35.9 µM (inactive); with SN12C, 29.4 µM (inactive); with HT-29 it was 35.7 µM (inactive); in the assay on UACC-257 it was 22.4 µM (inactive); in the assay on SR, 20.5 µM (inactive); in the assay on HCT-116, 16.5 µM (inactive). Moreover, the GI50 is 23.4 µM (inactive) in the assay on Malme-3M; 22.8 µM (inactive) in the assay with A549; 13.7 µM (inactive) in the assay on SW-620; > 100 µM (inactive) in the assay on SK-OV-3; 11.2 µM (inactive) in the assay with HL-60; 33.1 µM in the assay with HCT-15. Further, the GI50 is 10.4 µM (inactive) in the assay with UACC-62 and 45.7 µM (inactive) in the assay on EKVX.

`CC1CC2C(=O)NC(=O)C2c2[nH]c3ccccc3c21` (stereo not given): the GI50 is > 100 µM (inactive) in the assay on ACHN; 78.7 µM (inactive) in the assay with SN12C; > 100 µM (inactive) in the assay with HT-29; > 100 µM (inactive) in the assay on SR; > 100 µM (inactive) in the assay on HCT-116; 96.2 µM (inactive) in the assay with OVCAR-3. Also, the GI50 in the assay on Malme-3M is > 100 µM (inactive); with A549 it was > 100 µM (inactive); in the assay on LOX IMVI, > 100 µM (inactive); in the assay on SW-620, > 100 µM (inactive); with SK-OV-3, > 100 µM (inactive); in the assay with HL-60, 40.6 µM (inactive). The GI50 with HCT-15 was over 100 µM; with EKVX, > 100 µM (inactive).

For the compound `CC(NC(C)(C)C)C(=O)c1cccc(Cl)c1` (stereo not given) [BUPROPION HYDROCHLORIDE], the GI50 in the assay with ACHN, with SN12C, with HT-29, in the assay on UACC-257, in the assay with HCT-116 and in the assay on OVCAR-3 was > 100 µM (inactive) throughout. For the same compound, the GI50 in the assay with Malme-3M, in the assay on A549, with LOX IMVI, in the assay on SW-620, with SK-OV-3 and in the assay on UACC-62 was > 100 µM (inactive) each time. Further, the GI50 in the assay on EKVX was > 100 µM (inactive).

Regarding `CC(=O)CC(=O)OC1CC(C)CCC1C(C)C` (stereo not given), the GI50 was > 100 µM (inactive) in the assay with ACHN; > 100 µM (inactive) with SN12C; 30 µM (inactive) in the assay on HT-29; 77.4 µM (inactive) with UACC-257; 13.5 µM (inactive) in the assay with HCT-116; 26 µM (inactive) in the assay with OVCAR-3. Further, the GI50 in the assay on Malme-3M is 40.7 µM (inactive); with A549, 35.3 µM (inactive); with LOX IMVI, 47.6 µM (inactive); in the assay on SW-620, 43.1 µM (inactive); in the assay on SK-OV-3, > 100 µM (inactive); in the assay on HL-60, 18.8 µM (inactive). The GI50 with HCT-15 was 38.7 µM; with UACC-62, 69.2 µM (inactive); in the assay on EKVX, > 100 µM (inactive).
